One series deals with Human CCR1 (Homo sapiens (Human), UniProt P32246). Nature of the series: Human CCR1 THP-1 binding assay. The following applies: [125I]-MIP-1α competition, THP-1 cells. How it is done:
For radioligand competition studies, a final concentration of 1×10^5 THP-1 monocytic leukemia cells are combined with 100 μg of LS WGA PS beads (Amersham, Cat.#: RPNQ 0260) in 40 μL of assay buffer (RPMI 1640 without phenol red, 50 mM HEPES, 5 mM MgCl2, 1 mM CaCl2, 0.1% BSA). The THP-1 cell/bead mixture was added to each well of a 384-well assay plate (PerkinElmer, Cat. #:6007899) containing test compound in 3-fold serial dilution, with final concentrations ranging from 8 μM to 0.14 nM. A final concentration of 0.1 nM [^125I]-MIP-1α (PerkinElmer, Cat. #NEX298) in 20 μL assay buffer was added to the reaction. Unlabeled MIP-1α was added in excess to some wells to determine non-specific binding. Sealed assay plates were incubated at room temperature for 12 h then analyzed by LEADseeker™.
The competition data of the test compound over a range of concentrations is plotted as percentage inhibition of radioligand specifically bound in the absence of test compound (percent of total signal). After correcting for non-specific binding, IC50 values are determined. The IC50 value is defined as the concentration of test compound needed to reduce [^125I]-MIP-1α specific binding by 50% and is calculated using the four parameter logistic equation to fit the normalized data. The Ki values are determined by application of the Cheng-Prusoff equation to the IC50 values, where Ki=IC50/(1+ligand concentration/Kd). The Kd of [^125I]-MIP-1α in THP-1 cells is 0.1 nM. Each experiment was run in duplicate.

A further series has as its target Human PXR (Homo sapiens (Human), UniProt O75469). Nature of the series: PXR transactivation assay. Type of series: cell-based. An excerpt:
The cell culture medium used is DMEM. […] Charcoal/dextran treated fetal bovine serum (FBS) was purchased from Hyclone (Logan, Utah). HepG2 cells were obtained from ATCC (Manassas, Va.). Human PXR-pcDNA3 and luciferase reporter containing CYP3A4 promoter, CYP3A-Luc, were generated at Bristol-Myers Squibb. White tissue culture (TC)-surface 384-well plates were purchased from Perkin Elmer (Boston, Mass.). Luciferase substrate (Steady-Glo) was purchased from Promega (Madison, Wis.). Control compounds rifampicin, mifepristone, and sulfinpyrazone were purchased from Sigma (St. Louis, Mo.).
Culture of HepG2 cells is performed in T175 flasks using DMEM containing 10% FBS. The transfection mixture contains 1 μg/mL of PXR-pcDNA3 plasmid DNA, 20 μg/ml of Cyp3A-Lue plasmid DNA, 90 μL/mL of Lipofectamine 2000, and serum-free medium. After incubating at room temperature for 20 minutes, the transfection mixture (1 ml per flask) is applied to the cells in fresh medium (20 mL per flask), and flasks incubated at 37° C. (5% CO2) overnight.
The flasks are then tapped vigorously to break up cell aggregates. After the addition of 8 mL of DMEM containing 5% charcoal/dextran-treated FBS, the entire mixture is transferred to conical tubes. Cells are then centrifuged at 1000 rpm for 5 minutes. Cell pellets are resuspended to a final count of ˜7×10^6 cells/ml, in freezing media (DMEM containing 20% serum and 10% DMSO). The cell suspension is aliquoted into 15-mL polypropylene tubes, 5 mL per tube. Cells are slowly frozen by placing in a Styrofoam-insulated container at −80° C. overnight. Vials are transferred to an Ultracold (−140° C.) freezer after 24 hours for long-term storage.
Vials of cryopreserved cells are thawed rapidly in a warm water bath for five minutes. Cells are pooled and diluted to 50 mL in a 50-mL conical vial. The thawed cells are centrifuged at 1500 rpm for 5 minutes to collect the cells and the supernatant discarded. Cells are then resuspended in fresh Media II (DMEM containing 5% charcoal/dextran-treated FBS, 1% Penicillin/Streptomycin, 100 μM Non-essential Amino Acids, 1 mM Sodium Pyruvate, and 2 mM L-Glutamine), counted using the Guava Cell Counter, and diluted to 1.6×10^5 cells/ml in the same media.
Fifty microliters of cell mixture is added to wells in columns 1-23 of white tissue-culture treated 384-well plates containing 0.25 μL of test compound dissolved in 100% DMSO. Fifty microliters of Media II is added to wells in column 24. The plates are incubated at 37° C. (5% CO2) for 24 hours, then 5 μL of Alamar Blue reagent (Trek Diagnostics, Cat #00-100) is added to each well. Plates are then incubated an additional two hours at 37° C., 5% CO2 and then one hour at room temperature. […] After the fluorescence is measured, 25 μL of luciferase substrate (Steady-Glo, Promega) is added to each well. The plates are incubated for fifteen minutes at room temperature, after which the luminescence is read on a PheraStar (BMG Labtech) plate reader.
Rifampicin (10 μM), a well-known agonist of PXR, is included in each plate as an internal standard and positive control. The data is then expressed as percent control (% CTRL), where the control signal is the signal from the 10 μM rifampicin and the blank signal is that from the DMSO vehicle. % CTRL=((Compound signal−Blank signal)/(Control signal−Blank signal))*100
The EC50 is defined as the concentration corresponding to half of the maximal response derived from the fitted 20-point curve as determined using a four-parameter logistic regression model. Additionally, compounds may also be reported as EC20 or EC60.

The mark [1] stands for this setting: HepG2 cells, CYP3A-Luc reporter.

Some results are limits rather than exact numbers.

Sequence of Human CCR1 (P32246 whole entry): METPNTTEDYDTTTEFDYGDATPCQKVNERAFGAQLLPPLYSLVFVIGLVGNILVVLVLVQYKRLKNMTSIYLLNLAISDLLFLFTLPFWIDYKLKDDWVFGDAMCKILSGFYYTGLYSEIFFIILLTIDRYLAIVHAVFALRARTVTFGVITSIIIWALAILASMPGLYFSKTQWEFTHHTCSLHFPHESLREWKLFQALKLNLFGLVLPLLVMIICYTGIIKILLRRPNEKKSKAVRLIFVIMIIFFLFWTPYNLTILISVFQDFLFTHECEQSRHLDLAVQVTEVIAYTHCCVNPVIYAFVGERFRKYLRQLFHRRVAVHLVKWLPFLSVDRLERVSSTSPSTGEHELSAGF
Sequence of Human PXR (O75469 whole entry): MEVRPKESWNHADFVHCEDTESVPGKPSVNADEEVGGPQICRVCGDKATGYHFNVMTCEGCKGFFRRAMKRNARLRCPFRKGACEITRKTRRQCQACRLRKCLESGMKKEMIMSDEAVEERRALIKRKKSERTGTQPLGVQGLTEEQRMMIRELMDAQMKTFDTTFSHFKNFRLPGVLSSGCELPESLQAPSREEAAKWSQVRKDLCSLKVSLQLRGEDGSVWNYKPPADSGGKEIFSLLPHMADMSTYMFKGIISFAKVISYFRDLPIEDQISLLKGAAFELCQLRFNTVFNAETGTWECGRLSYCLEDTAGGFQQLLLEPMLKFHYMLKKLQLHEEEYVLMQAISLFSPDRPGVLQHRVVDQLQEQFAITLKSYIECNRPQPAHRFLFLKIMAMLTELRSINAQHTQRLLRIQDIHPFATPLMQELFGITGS

The Ki is a dissociation constant, usually derived from enzyme kinetics or from competition with a known ligand. A word on the EC50: it is the concentration at which the effect is half-maximal. Low values mean higher potency in that assay, high ones lower potency in that assay. For the compound `CC(C)[C@@H](NC(=O)NCC(C)(C)O)C(=O)N1CC[C@](O)(c2ccc(Cl)cc2)C(C)(C)C1` [Compound I], at Human CCR1, the affinity corresponds to a Ki of 0.7 nM. The compound also displayed an EC50 on Human PXR (setting [1]) of over 25000 nM. The “PXR activation (in words)” value on Human PXR (in vitro screen) was “not a significant activator”.
On to `CC(C)CC(=O)N[C@@H](C(=O)N1CC[C@](O)(c2ccc(Cl)cc2)C(C)(C)C1)C(C)C` [#466], for which the inhibitory constant (Ki) on Human CCR1 was 2.6 nM. Besides, the “PXR EC60” value at Human PXR (HepG2 cells, CYP3A-Luc reporter, reported as EC60) turned out to be 1120 nM.
In the case of `CC(C)[C@@H](NC(=O)CC(C)(C)O)C(=O)N1CC[C@](O)(c2ccc(Cl)cc2)C(C)(C)C1` [#1356], the inhibitory constant (Ki) on Human CCR1 turned out to be 3.7 nM. Besides, the EC50 on Human PXR (setting [1]) was found to be 1830 nM.
In the same order, the values of `CC(C)[C@@H](NC(=O)C1CCCC1)C(=O)N1CC[C@](O)(c2ccc(Cl)cc2)C(C)(C)C1` [#460] are 0.7 nM and 530 nM.
